Test results taken from patent publication US20210353557A1, “ORAL COMPOSITION CONTAINING REDUCED COENZYME Q10, METHOD FOR PRODUCING SAME, METHOD FOR PREVENTING DISCOLORATION AND DISCOLORATION PREVENTING AGENT” (SUNTORY HOLDINGS LIMITED, priority 2018, published 2021).

Test: Color difference (ΔE) after storage under accelerated condition, Reference Example 1
Type: physicochemical
Conditions: 40° C., 75% RH; for ΔE After 7 days: 7-day (168-hour) storage; for ΔE After 7 days / ΔE 0-Hour storage: n=1; for change in ΔE value after storage (in words): 7 days; for ΔE 0-Hour storage: start of storage
Description: The L value, a value, and b value of a sample were measured using a color difference meter (trade name: Spectrophotometer SE7700, available from Nippon Denshoku Industries Co., Ltd.). • The number n of samples was 3 for each standard unless otherwise mentioned. The average values of the three samples were defined as the L value, a value, and b value of the standard. • Measurement was performed five times for each sample, and the average value was output as the result. The sample was stirred for each measurement operation so that the whole sample was subjected to the measurement. • In the measurement, about 1 g of a sample was weighed out from a Petri dish for use. The sample in the Petri dish was mixed and homogenized before weighing out.
The ΔE value was calculated by the following formula.
ΔE={(ΔL)^2+(Δa)^2+(Δb)^2}^1/2
For each standard after storage for a predetermined period of time, the ΔE value was calculated based on the 0-time value (value after 0-hour storage) of the standard. For a control after storage for a predetermined period of time, the ΔE value was also calculated based on the 0-time value (value after 0-hour storage) of the control.
About 2 g each of the reduced CoQ10, sesamin compound, theanine, and dextrin were put into separate Petri dishes (n=1) and left to stand at a temperature of 40° C. and a humidity of 75% RH (accelerated condition). The L value, a value, and b value were measured at the start of storage (0-hour storage) and after 7-day (168-hour) storage, and then the ΔE value was calculated. For each sample, the change in appearance after seven days from the start of storage was visually observed.

SMILES: COc1c(O)c(C)c(C/C=C(\C)CC/C=C(\C)CC/C=C(\C)CC/C=C(\C)CC/C=C(\C)CC/C=C(\C)CC/C=C(\C)CC/C=C(\C)CC/C=C(\C)CCC=C(C)C)c(O)c1OC [Standard S-1, Reduced CoQ10]
- ΔE After 7 days: 66.4
- change in ΔE value after storage (in words): increase in ΔE value over time
- appearance by visual observation after seven days: orange
- ΔE 0-Hour storage: 0.0

SMILES: CCNC(=O)CC[C@H](N)C(=O)O [Standard S-3, Theanine]
- ΔE After 7 days: 0.1
- change in ΔE value after storage (in words): little change in ΔE value after storage
- appearance by visual observation after seven days: white to pale yellow
- ΔE 0-Hour storage: 0.0
